This note sets out measurements from patent publication US10618930B2, “Compounds for the treatment of cancer” (Eisai R&D Management Co., Ltd., priority 2017, dated 2020).

Where two headings read alike, the source gives them in different places.

One data set addresses Human STING (Homo sapiens, UniProt Q86WV6). Kind of data set: Human STING reporter assay, Tables 6-8 (variant named only in a drawing). Conditions: read-out: Human STING EC50 (μM).
Setting [1] is: Table 6, head only in drawing 188, ammonium salt form except Compounds 26, 33, 34 (bis-TEA salts).

Human STING, sequence (Q86WV6 whole entry): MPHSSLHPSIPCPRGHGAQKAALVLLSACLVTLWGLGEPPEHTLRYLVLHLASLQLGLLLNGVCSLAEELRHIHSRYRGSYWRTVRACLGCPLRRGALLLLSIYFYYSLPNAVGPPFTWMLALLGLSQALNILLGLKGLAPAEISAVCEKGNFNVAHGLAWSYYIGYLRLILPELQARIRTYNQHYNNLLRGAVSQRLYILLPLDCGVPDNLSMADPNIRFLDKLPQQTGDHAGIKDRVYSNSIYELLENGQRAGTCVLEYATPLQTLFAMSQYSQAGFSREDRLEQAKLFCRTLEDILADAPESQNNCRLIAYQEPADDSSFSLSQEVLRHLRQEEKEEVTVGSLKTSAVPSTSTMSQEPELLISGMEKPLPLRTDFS

`C=CCN(C(=O)c1ccccc1)c1ncnc2c1ncn2[C@@H]1O[C@@H]2COP(=S)(OCCC#N)O[C@H]3[C@@H](F)[C@H](n4cnc5c(N(CC=C)C(=O)c6ccccc6)ncnc54)O[C@@H]3COP(=O)(S)O[C@H]2[C@H]1F` (stereo partly shown): for the setting “from C=CCN(C(=O)c1ccccc1)c1ncnc2c1ncn2[C@@H]1O[C@H](COP(=S)(OCCC#N)O[C@H]2[C@@H](F)[C@H](n3cnc4c(N(CC=C)C(=O)c5ccccc5)ncnc43)O[C@@H]2CO)[C@@H](O[PH](=O)O)[C@H]1F, other bond, 2 steps”, the ring closure, yield of all isomers was determined as 100%.
With `CC(C)(C)[Si](C)(C)O[C@@H]1[C@@H]2N[P@@](=S)(OCCC#N)OC[C@H]3O[C@@H]4[C@H](O[Si](C)(C)C(C)(C)C)[C@@H]3N[P@](=S)(OCCC#N)OC[C@H]2O[C@H]1n1cnc2c(ncnc21)N(C(=O)c1ccccc1)CC=CCN(C(=O)c1ccccc1)c1ncnc2c1ncn24`, the ring closure, yield of all isomers (from C=CCN(C(=O)c1ccccc1)c1ncnc2c1ncn2[C@@H]1O[C@@H]2CO[P@@](=S)(OCCC#N)N[C@H]3[C@@H](O[Si](C)(C)C(C)(C)C)[C@H](n4cnc5c(N(CC=C)C(=O)c6ccccc6)ncnc54)O[C@@H]3CO[P@](=S)(OCCC#N)N[C@H]2[C@H]1O[Si](C)(C)C(C)(C)C, rcm bond) amounted to 24.5%.
`CC(C)(C)[Si](C)(C)O[C@H]1[C@H]2O[P@@](=O)(SCc3ccccc3[N+](=O)[O-])OC[C@H]3O[C@@H]4[C@H](F)[C@@H]3O[P@](=O)(SCc3ccccc3[N+](=O)[O-])OC[C@H]1O[C@H]2n1cnc2c(ncnc21)N(C(=O)c1ccccc1)CC=CCN(C(=O)c1ccccc1)c1ncnc2c1ncn24` had a ring closure, yield of all isomers (from C=CCN(C(=O)c1ccccc1)c1ncnc2c1ncn2[C@@H]1O[C@@H]2CO[P@](=O)(SCc3ccccc3[N+](=O)[O-])O[C@@H]3[C@H](O[Si](C)(C)C(C)(C)C)[C@@H](CO[P@@](=O)(SCc4ccccc4[N+](=O)[O-])O[C@H]2[C@H]1F)O[C@H]3n1cnc2c(N(CC=C)C(=O)c3ccccc3)ncnc21, rcm bond) of 6.1%.
Take `O=C(c1ccccc1)N1CC=CCN(C(=O)c2ccccc2)c2ncnc3c2ncn3[C@@H]2O[C@@H]3CO[P@](=O)(SCc4ccccc4[N+](=O)[O-])O[C@H]4[C@@H](F)[C@@H](O[C@@H]4CO[P@@](=O)(SCc4ccccc4[N+](=O)[O-])O[C@H]3[C@H]2F)n2cnc3c1ncnc32`: the ring closure, yield of all isomers (from C=CCN(C(=O)c1ccccc1)c1ncnc2c1ncn2[C@@H]1O[C@@H]2CO[P@@](=O)(SCc3ccccc3[N+](=O)[O-])O[C@H]3[C@@H](F)[C@H](n4cnc5c(N(CC=C)C(=O)c6ccccc6)ncnc54)O[C@@H]3CO[P@](=O)(SCc3ccccc3[N+](=O)[O-])O[C@H]2[C@H]1F, rcm bond) worked out at 39%.
With `O=C(c1ccccc1)N1CC=CCOc2ncnc3c2ncn3[C@@H]2O[C@@H]3COP(=O)(SCc4ccccc4[N+](=O)[O-])O[C@H]4[C@@H](F)[C@@H](O[C@@H]4COP(=O)(SCc4ccccc4[N+](=O)[O-])O[C@H]3[C@H]2F)n2cnc3c1ncnc32` (stereo partly shown), for the setting “from C=CCOc1ncnc2c1ncn2[C@@H]1O[C@@H]2COP(=O)(SCc3ccccc3[N+](=O)[O-])O[C@H]3[C@@H](F)[C@H](n4cnc5c(N(CC=C)C(=O)c6ccccc6)ncnc54)O[C@@H]3COP(=O)(SCc3ccccc3[N+](=O)[O-])O[C@H]2[C@H]1F, rcm bond”, the ring closure, yield of all isomers came out at 25.6%.
Consider `O=[N+]([O-])c1ccccc1CSP1(=O)OC[C@H]2O[C@H]([C@H](F)[C@@H]2O)n2cnc3c(ncnc32)CCC=CCCc2ncnc3c2ncn3[C@@H]2O[C@H](CO)[C@@H](O1)[C@H]2F` (stereo partly shown), for which the ring closure, yield of all isomers (from C=CCCc1ncnc2c1ncn2[C@@H]1O[C@H](COP(=O)(O[C@H]2[C@@H](F)[C@H](n3cnc4c(CCC=C)ncnc43)O[C@@H]2COC(c2ccccc2)(c2ccc(OC)cc2)c2ccc(OC)cc2)SCc2ccccc2[N+](=O)[O-])[C@@H](O)[C@H]1F, rcm bond, 2 steps) is 26.2%.
For `O=[N+]([O-])c1ccccc1CS[P@]1(=O)OC[C@H]2O[C@@H]3[C@H](F)[C@@H]2O[P@](=O)(SCc2ccccc2[N+](=O)[O-])OC[C@H]2O[C@H]([C@H](F)[C@@H]2O1)n1cnc2c(ncnc21)OCC=CCOc1ncnc2c1ncn23`, the ring closure, yield of all isomers (from C=CCOc1ncnc2c1ncn2[C@@H]1O[C@@H]2CO[P@@](=O)(SCc3ccccc3[N+](=O)[O-])O[C@H]3[C@@H](F)[C@H](n4cnc5c(OCC=C)ncnc54)O[C@@H]3CO[P@@](=O)(SCc3ccccc3[N+](=O)[O-])O[C@H]2[C@H]1F, rcm bond) amounted to 3.6%.
As for `O=[P@]1(S)OC[C@H]2OC3[C@H](F)[C@@H]2O[P@](=O)(S)OC[C@H]2O[C@H]([C@H](F)[C@@H]2O1)n1cnc2c(ncnc21)NCC1NC1CNc1ncnc2c1ncn23` (single isomer, unassigned) [Compound 35], the half-maximal effective concentration (EC50) at Human STING (setting [1]) was found to be 67.2 µM.
On the same count and under the same terms, as for `O=[P@]1(S)OC[C@H]2OC3[C@H](F)[C@@H]2O[P@](=O)(S)OC[C@H]2O[C@H]([C@H](F)[C@@H]2O1)n1cnc2c(ncnc21)NCC1NC1CNc1ncnc2c1ncn23` (single isomer, unassigned) [Compound 36], the figure is 94.1 µM.
As to `O=[P@@]1(S)OC[C@H]2O[C@@H]3[C@H](F)[C@@H]2O[P@](=O)(S)OC[C@H]2OC([C@H](F)[C@@H]2O1)n1cnc2c(ncnc21)OC/C=C/COc1ncnc2c1ncn23` [Compound 26], at Human STING (setting [1]), the EC50 worked out at 7.4 µM.
Turning to `O=P1(O)OC[C@H]2OC3[C@H](F)[C@@H]2O[P@@](O)(=S)OC[C@H]2O[C@H]([C@H](F)[C@@H]2O1)n1cnc2c(ncnc21)NC/C=C/CNc1ncnc2c1ncn23` [Compound 27], on Human STING, the EC50 was determined as 27.6 µM.
Still for that read-out and setting: as for `O=P1(O)OC[C@H]2OC3[C@H](F)[C@@H]2O[P@](O)(=S)OC[C@H]2O[C@H]([C@H](F)[C@@H]2O1)n1cnc2c(ncnc21)NC/C=C/CNc1ncnc2c1ncn23` [Compound 28], the figure is 18.4 µM.
Take `O=[P@]1(S)OC[C@H]2OC3[C@H](F)[C@@H]2O[P@](=O)(S)OC[C@H]2O[C@H]([C@H](F)[C@@H]2O1)n1cnc2c(ncnc21)NCC#CCNc1ncnc2c1ncn23` [Compound 29]: the EC50 on Human STING (setting [1]) is 8.4 µM.
